Holding throughout (test): microbe, parasite or virus in culture
For test [1], the system named is EBOV-GFP (recombinant Ebola Zaire virus expressing green fluorescence protein). The format is cell-based. Particulars: for inhibition at 20 µM: Zaire ebolavirus, Vero C1008, 48 h, read-out: EBOV % Inhibition (20 μM).
In test [2] the test system is MPXV-GFP (recombinant monkeypox virus expressing GFP, Zaire strain). The format is cell-based. The conditions noted are these: Vero C1008, in Primates, 48 h, read-out: Monkey Pox % Inhibition (20 μM).
In test [3] the test system is EBOV-GFP. The format is cell-based, Ebola Zaire virus.

The text below walks through data of patent publication US7999001B2 (priority 2007, dated 2011).

Like-named read-outs stand apart in the source and are kept apart here.

As usually defined, the inhibition is how much of the control response was suppressed. Regarding `N=C(N)c1ccc2oc(/C=C/C=C/c3cc4cc(C(=N)N)ccc4o3)cc2c1` [NSC 300511, 2-[(1E,3E)-4-(5-carbamimidoylbenzofuran-2-yl)buta-1,3-dienyl]benzofuran-5-carboximidamide], the inhibition at 20 µM in test [1] worked out at 49.2%.

With `N=C(N)c1ccc2c(c1)=NC(=C(N)N)C=2` [NSC 330689, 2-(diaminomethylidene)indole-6-carboximidamide], the inhibition at 20 µM in test [2] is 89.9%.

Regarding `Cc1c2ccncc2c(C)c2c1[nH]c1ccc(O)cc12` [NSC 264136, 5,11-dimethyl-6H-pyrido[4,3-b]carbazol-9-ol], in test [1], the inhibition at 20 µM worked out at 63.1%.

On to `CCN(CC)CCCNc1nc(C)cc(Nc2ccc3nc(C)cc(N)c3c2)n1` [NSC 23767, N^6-(2-((3-(diethylamino)propyl)amino)-6-methyl-4-pyrimidinyl)-2-methyl-4,6-quinolinediamine], for which the inhibition at 20 µM in test [1] is 74.1%.

`C(=C\c1cc2cc(C3=NCCN3)ccc2o1)/c1ccc(C2=NCCN2)cc1` [NSC 308570, 2-[2-[(E)-2-[4-(4,5-dihydro-1H-imidazol-2-yl)phenyl]ethenyl]benzofuran-5-yl]-4,5-dihydro-1H-imidazole]: in test [1], the inhibition at 20 µM was determined as 30.7%.

Turning to `c1cc(-c2[nH]c3cc(C4=NCCN4)ccc3c2-c2cc3ccc(C4=NCCN4)cc3[nH]2)ccc1C1=NCCN1` [NSC 352341, 6-(4,5-dihydro-1H-imidazol-2-yl)-3-[6-(4,5-dihydro-1H imidazol-2-yl)-1H-indol-2-yl]-2-[4-(4,5-dihydro-1H-imidazol-2-yl)phenyl]-1H-indole], in test [1] (20 µM), the “EBOV % Inhibition (20 μM)” value is on record as 41.2%.

Regarding `C(=C\c1cc2cc(C3=NCCN3)ccc2o1)/c1cc2cc(C3=NCCN3)ccc2o1` [NSC 278999, 2-[2-[(E)-2-[5-(4,5-dihydro-1H-imidazol-2-yl)benzofuran-2-yl]ethenyl]benzofuran-5-yl]-4,5-dihydro-1H-imidazole], in test [1], the inhibition at 20 µM was 55.6%.

With `N=C(N)c1ccc2oc(/C=C/c3cc4cc(C(=N)N)ccc4s3)cc2c1` [NSC 266472, 2-[(E)-2-(5-carbamimidoylbenzothiophen-2-yl)ethenyl]benzofuran-5-carboximidamide], the inhibition at 20 µM in test [1] is 67.5%.

With `N=C(N)c1ccc(-c2[nH]c3cc(C(=N)N)ccc3c2N)cc1` [NSC 300509, 3-amino-2-(4-carbamimidoylphenyl)-1H-indole-6-carboximidamide], in test [2], the inhibition at 20 µM stood at 84.9%.

Turning to `N=C(N)c1ccc2cc(/C=C/c3cc4ccc(C(=N)N)cc4o3)oc2c1` [NSC 294199, 2-[(E)-2-(6-carbamimidoylbenzofuran-2-yl)ethenyl]benzofuran-6-carboximidamide], the results for the inhibition at 20 µM in test [1] and in test [2] were 68.8% and 40.9%, respectively.

With `C(/C=C/c1cc2cc(C3=NCCN3)ccc2o1)=C\c1cc2cc(C3=NCCN3)ccc2o1` [NSC 308571, 2-[2-[(1E,3E)-4-[5-(4,5-dihydro-1H-imidazol-2-yl)benzofuran-2-yl]buta-1,3-dienyl]benzofuran-5-yl]-4,5-dihydro-1H-imidazole], the inhibition at 20 µM in test [1] was 61.2%.

With `c1cc(-c2cc3cc(C4=NCCN4)ccc3s2)ccc1C1=NCCN1` [NSC 308569, 2-[2-[4-(4,5-dihydro-1H-imidazol-2-yl)phenyl]benzothiophen-5-yl]-4,5-dihydro-1H-imidazole], the inhibition at 20 µM in test [1] was determined as 35.3%; in test [2], 95.8%.

Regarding `O=C1C(SCCO)=C(SCCO)C(=O)c2ccccc21` [NSC 95397, 2,3-bis((2-hydroxyethyl)thio)naphthoquinone], the “EBOV % Inhibition (20 μM)” value in test [1] is listed as 75.3%.

As to `C(/C=C/c1cc2cc(C3=NCCN3)ccc2o1)=C\c1ccc(C2=NCCN2)cc1` [NSC 308573, 2-[2-[(1E,3E)-4-[4-(4,5-dihydro-1H-imidazol-2-yl)phenyl]buta-1,3-dienyl]benzofuran-5-yl]-4,5-dihydro-1H-imidazole], the inhibition at 20 µM in test [1] turned out to be 54.2%.

Consider `c1cc(-c2cc3ccc(C4=NCCN4)cc3[nH]2)ccc1C1=NCCN1` [NSC 278995, 6-(4,5-dihydro-1H-imidazol-2-yl)-2-[4-(4,5-dihydro-1H-imidazol-2-yl)phenyl]-1H-indole], for which the inhibition at 20 µM in test [2] was found to be 99.3%.

`N=C(N)c1ccc(-c2cc(-c3ccc(C(=N)N)cc3)on2)cc1` [NSC 240900, 4-[3-(4-carbamimidoylphenyl)oxazol-5-yl]benzenecarboximidamide]: in test [2], the inhibition at 20 µM is 79.9%.

As to `N=C(N)c1ccc(-c2cc3ccc(C(=N)N)cc3s2)cc1` [NSC 240890, 2-(4-carbamimidoylphenyl)benzothiophene-6-carboximidamide; 2-hydroxypropanoic acid], the inhibition at 20 µM in test [1] is 54.9%; in test [2], 46.7%.

Take `N=C(N)c1ccc(-c2ccc(-c3ccc(C(=N)N)cc3)s2)cc1` [NSC 300510, 4-[5-(4-carbamimidoylphenyl)thiophen-2-yl]benzenecarboximidamide]: the inhibition at 20 µM came out at 59.7% in test [1] and 89.9% in test [2]. In test [3], the “dose dependent antiviral activity toward EBOV-GFP” value is “dose dependent antiviral activity”.

As for `Nc1ccc(-c2cc3ccc(C4=NCCN4)cc3[nH]2)cc1` [NSC 369715, 4-(6-(4,5-dihydro-1H-imidazol-2-yl)-1H-indol-2-yl)phenylamine], the inhibition at 20 µM in test [1] is 56.8%.

As for `c1cc(-c2[nH]c3cc(C4=NCCN4)ccc3c2-c2cc3ccc(C4=NCCN4)cc3[nH]2)ccc1C1=NCCN1` [NSC 341911, 6-(4,5-dihydro-1H-imidazol-2-yl)-3-[6-(4,5-dihydro-1H-imidazol-2-yl)-1H-indol-2-yl]-2-[4-(4,5-dihydro-1H-imidazol-2-yl)phenyl]-1H-indole], the inhibition at 20 µM in test [1] was 33.2%.

In the case of `N=C(N)c1ccc(-n2cc3cc(C(=N)N)ccc3n2)cc1` [NSC 240895, 2-(4-carbamimidoylphenyl)indazole-5-carboximidamide], the inhibition at 20 µM in test [1] was found to be 32.2%; in test [2], 99.7%.

As to `O=C(Nc1ccc(C2=NCCN2)cc1)c1cc2cc(C3=NCCN3)ccc2o1` [NSC 290111, 5-(4,5-dihydro-1H-imidazol-2-yl)-N-[4-(4,5-dihydro-1H-imidazol-2-yl)phenyl]benzofuran-2-carboxamide], in test [1], the inhibition at 20 µM is 40%.

As to `C(=C\c1cc2cc(C3=NCCN3)ccc2o1)/c1cc2cc(C3=NCCN3)ccc2[nH]1` [NSC 290108, 5-(4,5-dihydro-1H-imidazol-2-yl)-2-[(E)-2-[5-(4,5-dihydro-1H-imidazol-2-yl)benzofuran-2-yl]ethenyl]-1H-indole], the inhibition at 20 µM in test [1] worked out at 45%; in test [2] it was 45.1%.

As to `N=C(N)c1ccc(-c2cc3cc(C(=N)N)ccc3s2)cc1` [NSC 240891, 2-(4-carbamimidoylphenyl)benzothiophene-5-carboximidamide], the inhibition at 20 µM in test [1] came to 40.3%; in test [2], 99.4%.

For the compound `NC(N)=NN=Cc1ccc2cc(-c3ccc(/C=N/N=C(N)N)cc3)sc2c1` [NSC 341909, 2-[[2-[4-[(E)-(diaminomethylidenehydrazinylidene)methyl]phenyl]benzothiophen-6-yl]methylideneamino]guanidine], the inhibition at 20 µM in test [1] stood at 57.5%; in test [2], 95.8%.

Consider `N=C(N)c1ccc(/C=C/C=C/c2cc3cc(C(=N)N)ccc3o2)cc1` [NSC 308572, 2-[(1E,3E)-4-(4-carbamimidoylphenyl)buta-1,3-dienyl]benzofuran-5-carboximidamide], for which, in test [1], the inhibition at 20 µM was determined as 32.8%.

As for `N=C(N)c1ccc(Oc2ccc(-c3cc4ccc(C(=N)N)cc4[nH]3)cc2)cc1` [NSC 240898, 2-[4-(4-carbamimidoylphenoxy)phenyl]-1H-indole-6-carboximidamide], the inhibition at 20 µM in test [2] was 98.1%.

Usually IC50 stands for the point on the concentration scale where inhibition reaches its midpoint. Regarding `CC(=O)NC1=C(Sc2ccc(Cl)cc2)C(=O)c2ccccc2C1=O` [NSC 128981, N-(3-((4-chlorophenyl)thio)-1,4-dioxo-1,4-dihydro-2-naphthalenyl)acetamide], the inhibition at 20 µM in test [1] was found to be 97.7%. Besides, the IC50 in test [3] (Zaire ebolavirus, Vero C1008, read-out: IC50 (read from graphs of % of control infection)) is approximately 15 µM.

With `O=C(Nc1ccc(C2=NCCN2)cc1)c1cc2ccc(C3=NCCN3)cc2[nH]1` [NSC 294206, 6-(4,5-dihydro-1H-imidazol-2-yl)-N-[4-(4,5-dihydro-1H-imidazol-2-yl)phenyl]-1H-indole-2-carboxamide], the inhibition at 20 µM came to 61.5% in test [1] and 86% in test [2]. The “dose dependent antiviral activity toward EBOV-GFP” value in test [3] is given as “dose dependent antiviral activity”.

On to `N=C(N)c1ccc2[nH]c(/C=C/c3cc4cc(C(=N)N)ccc4o3)cc2c1` [NSC 290107, 2-[(E)-2-(5-carbamimidoylbenzofuran-2-yl)ethenyl]-1H-indole-5-carboximidamide], for which, in test [1], the inhibition at 20 µM was determined as 33.6%.

On to `c1cc2cc(-c3cc4ccc(C5=NCCN5)cc4[nH]3)[nH]c2cc1C1=NCCN1` [NSC 330688, 6-(4,5-dihydro-1H-imidazol-2-yl)-2-[6-(4,5-dihydro-1H-imidazol-2-yl)-1H-indol-2-yl]-1H-indole], for which the inhibition at 20 µM in test [1] is 51.3%; in test [2] it was 84.9%.

`O=C(Nc1ccc(C2=NCCN2)cc1)c1cc2ccc(C3=NCCN3)cc2o1` [NSC 294208, 6-(4,5-dihydro-1H-imidazol-2-yl)-N-[4-(4,5-dihydro-1H-imidazol-2-yl)phenyl]benzofuran-2-carboxamide]: the inhibition at 20 µM in test [1] came out at 38.8%.

With `N=C(N)c1ccc(-c2nc3ccc(C(=N)N)cc3[nH]2)cc1` [NSC 240894, 2-(4-carbamimidoylphenyl)-3H-benzoimidazole-5-carboximidamide], in test [2], the inhibition at 20 µM was 89.7%.
